Laboratory results taken from ChEMBL document CHEMBL4400514, “Medicinal chemistry of metal chelating fragments in metalloenzyme active sites: A perspective” (Eur J Med Chem, 2019).

Legend:
[1] = target: T1, Deoxyhypusine hydroxylase (Plasmodium falciparum (isolate 3D7)) (UniProt Q8I701); test: Inhibition of Plasmodium falciparum DOHH expressed in Escherichia coli BL21 cells at 1 mM after 24 hrs by GC/MS analysis relative to control
T1 sequence (whole entry): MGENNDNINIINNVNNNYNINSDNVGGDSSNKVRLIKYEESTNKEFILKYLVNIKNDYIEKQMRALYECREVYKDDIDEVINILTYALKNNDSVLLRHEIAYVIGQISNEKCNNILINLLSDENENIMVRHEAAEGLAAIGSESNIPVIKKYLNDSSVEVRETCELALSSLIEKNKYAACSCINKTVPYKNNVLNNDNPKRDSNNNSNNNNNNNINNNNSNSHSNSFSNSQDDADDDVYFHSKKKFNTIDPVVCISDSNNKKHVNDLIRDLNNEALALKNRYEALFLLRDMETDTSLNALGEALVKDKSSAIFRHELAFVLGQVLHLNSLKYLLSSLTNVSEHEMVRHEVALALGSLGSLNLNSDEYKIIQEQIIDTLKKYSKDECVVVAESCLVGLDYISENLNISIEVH

[2] = target: T2, Deoxyhypusine hydroxylase (Homo sapiens, UniProt Q9BU89); test: Inhibition of DOHH (unknown origin)
T2 sequence (Q9BU89 whole entry): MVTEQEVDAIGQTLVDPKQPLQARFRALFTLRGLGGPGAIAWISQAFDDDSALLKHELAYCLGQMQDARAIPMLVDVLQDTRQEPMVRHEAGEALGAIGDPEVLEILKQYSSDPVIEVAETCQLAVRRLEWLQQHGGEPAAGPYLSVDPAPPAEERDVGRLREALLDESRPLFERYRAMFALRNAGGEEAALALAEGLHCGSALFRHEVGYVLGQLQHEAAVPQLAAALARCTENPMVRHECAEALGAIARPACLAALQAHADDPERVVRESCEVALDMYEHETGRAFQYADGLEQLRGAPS

| inhibition [1] | IC50 [2] | SMILES |
| --- | --- | --- |
| 43.3% | – | CCOc1ccc(-c2nonc2NC(=O)c2cccc(C)c2)cc1OCC |
| 38.8% | – | COc1ccc(-c2nc3cc(Cc4ccc5[nH]c(-c6ccc(OC)cc6)nc5c4)ccc3[nH]2)cc1 |
| 35.9% | – | c1ccc(Cn2c(/N=N/c3c(Nc4ccccc4)ccc4ccccc34)nc3ccccc32)cc1 |
| – | 5 to 200 µM | Cc1cc(C2CCCCC2)n(O)c(=O)c1 [CICLOPIROX] |
| – | 5 to 200 µM | CC(=O)N(O)CCCCCNC(=O)CCC(=O)N(O)CCCCCNC(=O)CCC(=O)N(O)CCCCCN [DEFEROXAMINE] |
| – | 5 to 200 µM | c1ccc(-c2ccccn2)nc1 [DIPYRIDYL] |

| SMILES | inhibition [1] | IC50 [2] |
| --- | --- | --- |
| Cc1c(O)c(=O)ccn1C [DEFERIPRONE] | – | 5 to 200 µM |
| N[C@@H](Cn1ccc(=O)c(O)c1)C(=O)O [L-MIMOSINE] | – | 5 to 200 µM |
